Publication PMC11087444, “Multi-functionalization of reduced graphene oxide nanosheets for tumor theragnosis: Synthesis, characterization, enzyme assay, in-silico study, radiolabeling and in vivo targeting evaluation” (DARU Journal of Pharmaceutical Sciences, 2023)

Experiments:
[1] = test system: human breast cancer MDA-MB-436 cells; test: MTT cell proliferation assay, cytotoxicity of compounds 3 and 4a-c; assay type: cell-based; details: for IC50: Homo sapiens, MTT, BRCA1 deficient MDA-MB-436 cells; for reduction in potency (cytotoxicity): MDA-MB-436, relative to Staurosporine
Procedure: The cytotoxicity assay was performed at Department of therapeutic chemistry/ National Research Center. cytotoxic activity of target compounds 3, 4a-c was determined via three independent experiments by 3-(4,5-dimethylthiazolyl-2)-2,5-diphenyltetrazolium bromide (MTT) cell proliferation assay against the cell proliferation of human breast cancer MDA-MB-436 cells carrying natural BRCA1 deficient [R].

PARP-1 = biological target: T1, PARP-1 (Homo sapiens, UniProt P09874); test: In vitro PARP inhibition assay (HT F Homogeneous PARP Inhibition Assay Kit); assay type: biochemical
T1 construct: purchased Trevigen 4690-096-K
Procedure: Olaparib was used as positive control. Fluorescence values under the condition of excitation wavelength (544 nm) and emission wavelength (590 nm) were measured using a multi-well spectrophotometer (Molecular Devices SpectraMax M5 microplate reader, Careforde, Chicago, USA). Then, the standard curve was drawn and the inhibition rate of each test compound was calculated. IC50 value of each compound was calculated using GraphPad Prism 6 software.

[2] = Biodistribution of radiolabeled complexes in normal mice; assay type: in vivo, Albino mice
[3] = test system: solid tumor (Ehrlich Ascites Carcinoma); test: Biodistribution and tumor targeting in solid tumor-bearing mice; assay type: in vivo, Swiss Albino mice
Procedure: To form a solid tumor, a 0.2 mL of Ehrlich Ascites Carcinoma fluid was administered intramuscularly in the right thigh of female Swiss Albino mice. The animals were well-cared until the tumors became obvious (7- 10 days). The parent tumor line (Ehrlich Ascites Carcinoma) was withdrawn from 7-day-old Swiss Albino donor females and diluted with sterile physiological saline solution to yield 12.5 x 10^6 cells/mL [52].
Biodistribution studies were performed by injecting the solid tumor-bearing mice intravenously with NGO-COOH nanosheets followed by injecting the radiolabeled complexes. The mice were divided into four groups (four mice per group) according to the designated time of dissection. Following the administration of the radiolabeled nanosheets, mice were dissected at 0.5, 1, 2, 4 h post injection (p.i). Blood, solid tumor, and major organs/tissues were collected and wet-weighed. The distribution of the radioactivity in each organ/ fluid was measured ex vivo, the radioactivity in each was detected by a gamma-counter (Perkin Elmer) as presented in Fig. 4. The results were expressed as mean percentage injected dose per gram (%ID/g ± SD).

T1 sequence (P09874 whole entry): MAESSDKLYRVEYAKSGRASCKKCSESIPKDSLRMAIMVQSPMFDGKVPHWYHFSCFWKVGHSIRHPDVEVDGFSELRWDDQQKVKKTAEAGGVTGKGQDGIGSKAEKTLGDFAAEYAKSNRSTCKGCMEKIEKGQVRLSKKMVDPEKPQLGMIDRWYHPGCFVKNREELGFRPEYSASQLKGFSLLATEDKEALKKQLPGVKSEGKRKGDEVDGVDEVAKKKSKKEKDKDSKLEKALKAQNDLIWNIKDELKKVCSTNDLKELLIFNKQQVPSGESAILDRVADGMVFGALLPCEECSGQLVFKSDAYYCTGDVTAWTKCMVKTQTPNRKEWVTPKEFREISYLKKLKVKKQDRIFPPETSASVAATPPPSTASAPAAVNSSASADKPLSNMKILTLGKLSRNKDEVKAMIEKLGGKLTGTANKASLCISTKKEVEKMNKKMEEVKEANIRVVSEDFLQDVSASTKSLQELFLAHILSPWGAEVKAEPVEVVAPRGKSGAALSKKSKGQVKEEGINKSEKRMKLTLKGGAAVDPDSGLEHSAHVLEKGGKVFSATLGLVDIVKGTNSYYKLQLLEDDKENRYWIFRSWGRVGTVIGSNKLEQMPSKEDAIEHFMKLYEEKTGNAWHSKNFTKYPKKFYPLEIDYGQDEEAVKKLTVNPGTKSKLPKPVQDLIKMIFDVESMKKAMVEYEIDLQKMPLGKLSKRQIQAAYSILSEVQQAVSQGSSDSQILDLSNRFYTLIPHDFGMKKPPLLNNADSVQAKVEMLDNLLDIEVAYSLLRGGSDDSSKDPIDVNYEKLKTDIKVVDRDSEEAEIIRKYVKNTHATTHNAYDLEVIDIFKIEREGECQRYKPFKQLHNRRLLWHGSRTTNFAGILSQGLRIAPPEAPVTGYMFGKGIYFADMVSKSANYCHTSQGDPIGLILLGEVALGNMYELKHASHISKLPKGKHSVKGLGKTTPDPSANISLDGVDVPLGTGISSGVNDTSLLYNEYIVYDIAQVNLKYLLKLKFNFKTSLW

NNS(=O)(=O)c1ccc2c(=O)[nH]c(=O)[nH]c2c1 [Compound 3, 2,4-dioxo-1,2,3,4-tetrahydroquinazoline-7-sulfonohydrazide]
IC50 [1]: 6 nM | times more potent than Staurosporine (cytotoxicity) ([1]; MDA-MB-436, ratio of IC50): about 1.6 times | IC50 (PARP-1): 261 nM | melting point: 268 to 270 °C

Cc1ccc(NS(=O)(=O)c2ccc3c(=O)[nH]c(=O)[nH]c3c2)cc1 [Compound 4a, 2,4-Dioxo-N-(p-tolyl)-1,2,3,4-tetrahydroquinazoline-7-sulfonamide]
IC50 [1]: 50 nM | reduction in potency (cytotoxicity) [1]: 5 folds | IC50 (PARP-1): 436 nM | melting point: > 300 °C

O=C(O)c1ccccc1NS(=O)(=O)c1ccc2c(=O)[nH]c(=O)[nH]c2c1 [Compound 4b, 2-(2,4-Dioxo-1,2,3,4-tetrahydroquinazoline-7-sulfonamido) benzoic acid]
IC50 (PARP-1): 167 nM | melting point: 280 to 282 °C

O=c1[nH]c(=O)c2ccc(S(=O)(=O)Nc3nccs3)cc2[nH]1 [Compound 4c, 2,4-dioxo-N-(thiazol-2-yl)-1,2,3,4-tetrahydroquinazoline-7-sulfonamide]
IC50 [1]: 40 nM | reduction in potency (cytotoxicity) [1]: 4 folds | IC50 (PARP-1): 153 nM | melting point: 265 to 267 °C

[^99mTc]Tc-2,4-dioxo-1,2,3,4-tetrahydroquinazoline-7-sulfonohydrazide [^99mTc-3]
blood uptake ([2]; normal mice, i.v., 0.5 h p.i.): 10.5 ± 1.4 %ID/g | liver uptake ([2]; normal mice, i.v., 0.5 h p.i.): 11 ± 1.7 %ID/g | liver uptake ([2]; normal mice, i.v., 1 h p.i.): 12 ± 1.2 %ID/g | blood uptake ([2]; normal mice, i.v., 4 h p.i.): 3.2 ± 0.4 %ID/g | liver uptake ([2]; normal mice, i.v., 4 h p.i.): 8 ± 1.3 %ID/g | tumor uptake ([3]; solid tumor-bearing mice, i.v., 0.5 h p.i.): 5.0 ± 0.40 %ID/g | tumor uptake ([3]; solid tumor-bearing mice, i.v., 2 h p.i.): 6.5 ± 0.3 %ID/g | tumor uptake ([3]; solid tumor-bearing mice, i.v., 4 h p.i.): 6.0 ± 0.4 %ID/g

[^99mTc]Tc-NGO-COOH-2,4-dioxo-1,2,3,4-tetrahydroquinazoline-7-sulfonohydrazide [^99mTc-NGO-COOH-3]
blood uptake ([2]; mouse, in vivo, iv, 0.5 h): 5.0 ± 0.5 %ID/g | liver uptake ([2]; mouse, in vivo, iv, 0.5 h): 7.0 ± 0.7 %ID/g | blood uptake ([2]; mouse, in vivo, iv, 4 h): 1 ± 0.1 %ID/g | liver uptake ([2]; mouse, in vivo, iv, 4 h): 15.0 ± 1.5 %ID/g | target/nontarget (T/NT) ratio, tumor muscle to contralateral normal muscle ([3]; mouse, in vivo, iv): 9.0 | tumor uptake ([3]; mouse, in vivo, iv, 0.5 h): 7.0 ± 0.70 %ID/g | tumor uptake ([3]; mouse, in vivo, iv, 1 h): 12.0 ± 1.2 %ID/g
